Each structure is given as a SMILES string. Like-named read-outs stand apart in the source and are kept apart here.

The term IC50 denotes the midpoint of a concentration-inhibition curve.

Test [1] addresses T1, Sheep Seminal Vesicle Cyclooxygenase (Ovis aries, UniProt P05979).
T1 construct: purchased Biomol (Plymouth Meeting, Pa.); host or cells: sheep seminal vesicle
T1 sequence (P05979 25-600): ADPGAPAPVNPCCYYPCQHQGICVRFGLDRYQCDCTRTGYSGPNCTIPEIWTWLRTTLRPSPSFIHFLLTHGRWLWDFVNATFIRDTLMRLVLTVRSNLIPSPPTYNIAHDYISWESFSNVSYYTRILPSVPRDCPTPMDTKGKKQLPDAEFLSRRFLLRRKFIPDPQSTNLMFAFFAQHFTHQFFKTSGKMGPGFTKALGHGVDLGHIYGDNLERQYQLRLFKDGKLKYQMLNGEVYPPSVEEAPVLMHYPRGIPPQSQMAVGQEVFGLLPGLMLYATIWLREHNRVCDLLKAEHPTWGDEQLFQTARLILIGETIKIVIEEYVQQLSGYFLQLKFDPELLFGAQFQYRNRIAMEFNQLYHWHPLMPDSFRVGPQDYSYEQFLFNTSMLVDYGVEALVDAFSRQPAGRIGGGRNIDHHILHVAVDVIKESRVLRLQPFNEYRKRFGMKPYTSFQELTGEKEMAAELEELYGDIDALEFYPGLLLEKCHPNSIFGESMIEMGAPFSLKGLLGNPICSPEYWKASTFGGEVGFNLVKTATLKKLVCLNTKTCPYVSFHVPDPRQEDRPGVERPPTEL
As to the kind of experiment: Procedure I: sheep seminal vesicle (SSV) cyclooxygenase inhibition. The note with it: for IC50: SSV CO; for % INHIB. CO (Procedure I): dose 3 MPK unless otherwise stated (so in the source). The test is classed as biochemical. As for the experimental part: Sheep Seminal Vesicle Cyclooxygenase Sheep seminal vesicle (SSV) cyclooxygenase (95% pure, prostaglandin endoperoxide synthase, EC 1.14.99.1 specific activity 24 units/mg protein) obtained as a lyophilized powder from Biomol (Plymouth Meeting, Pa.) was reconstituted at a concentration of 59 mg/mL in Hanks' Balanced Salt Solution (HBSS). The enzyme was divided into 200 μL aliquots, snap frozen with liquid N2, and stored at -70° C. until immediately prior to use. Measurements of CO activity were carried out in polypropylene tubes containing 495 μL of HBSS to which was added 5 μL Of inhibitor or dimethylsulfoxide (DMSO; vehicle control) and 6 μL of SSV CO solution. The tubes were mixed on a vortex shaker, preincubated for 5 min at 37° C. prior to the initiation of the reaction. The reaction was started by the addition of [^14 C]-arachidonic acid (1-^14 C-AA, Amersham, Arlington Heights, Ill.) in 10 μL of methanol. Tubes were again vortexed and incubated in a water bath for 20 minutes after which the tubes were removed and the reaction stopped by acidification with the addition of 1 mL 2M formic acid. Lipophilic products were extracted with 3 mL chloroform and concentrated to dryness under N2. Each pellet was reconstituted with 40 μL of chloroform and spotted on a Whatman Silicon thin-layer chromatography plate and developed in a chromatography tank containing A-9 solvent (11:5:2:1 V:V:V:V, ethyl acetate:trimethyl-pentane:acetic acid:double distilled-H2 O). Radioactive cyclooxygenase products (prostaglandin D2, prostaglandin E2, etc.) were measured using a Bioscan System 200 Imaging Scanner. Inhibition of enzyme activity was calculated by comparing the areas under the curve produced in the presence or absence of test compound. In the following tables, the superscripts indicate the number of experiments and, unless otherwise stated, the dose at which % inhibition is reported is 3 MPK.

Test [2] concerns CO (prostaglandin F2a or TxB2) in dog whole blood. As to the kind of experiment: Procedure IV: ex vivo eicosanoid synthesis in dog whole blood after oral dosing, CO. The conditions noted are these: Canis lupus familiaris, read-out: % INHIB/HOURS CO (Proc. IV); for inhibition at 1 mg/kg: 1 MPK; for inhibition at 5 mg/kg: 5 MPK. As for the experimental part: (§1) Ex Vivo eicosanoid synthesis in dog whole blood. Adult beagle or mongrel dogs (10-15 kg) of either sex were fasted overnight prior to the initiation of each experiment. The forelimb was clipped and swabbed with an alcohol prep (70% isopropanol). Blood was drawn by venipuncture into syringes containing lithium heparin (Starstead, Newton N.C.) immediately prior to administration of compound or vehicle and then at various intervals following dosing. The test compound was administered orally as a suspension in 0.5% methocel. At various times after dosing, blood samples were drawn and placed on an electric rocker platform to assure complete and continuous mixing. White blood cell (wbc) counts were performed using a Sysmex hematology analyzer. This was done in an effort to normalize the number of leukocytes to be stimulated with calcium ionophore. A 1.0 mL aliquot of whole blood was challenged with 50 μL of a 2.6×10^-5 M solution of calcium ionophore A23187 (Calbiochem, La Jolla, Calif.) prepared in DMSO and diluted in HBSS. After a 15 minute incubation at 37° C., the reaction was stopped by placing the samples in an ice bath (4° C.) for 5 minutes and then centrifuged at 11,000×g for 5 minutes to separate the plasma fraction from blood cells. The plasma fraction was removed, diluted in an appropriate buffer, and analyzed for the presence of LTB4 and prostaglandin F2a or TxB2 by standard RIA techniques.
(§2) In the following tables, the superscripts indicate the number of experiments and, unless otherwise stated, the dose at which % inhibition is reported is 3 MPK.

Test [3] relates to 5-LO (LTB4) in dog whole blood. Put plainly: Procedure IV: ex vivo eicosanoid synthesis in dog whole blood after oral dosing, 5-LO. The conditions noted are these: Canis lupus familiaris, read-out: % INHIB/HOURS 5-LO (Proc. IV); for inhibition at 1 mg/kg: 1 MPK; for inhibition at 5 mg/kg: 5 MPK. As for the experimental part: as §1, §2

Regarding `COc1ccc(-n2nc(COC(=O)NO)cc2-c2ccc(Cl)cc2)cc1` [1-A], in test [1], half-maximal inhibition (IC50) required 2250 nM and the “% INHIB. CO (Procedure I)” value is 43%.
On the same counts, the results for `COc1ccc(-n2nc(COC(=O)N(C)O)cc2-c2ccc(Cl)cc2)cc1` [1-B] are 730 nM and 100%.
As for `COc1ccc(-n2nc(COC(=O)N(O)C(C)C)cc2-c2ccc(Cl)cc2)cc1` [1-C], in test [1], the IC50 was 520 nM and the “% INHIB. CO (Procedure I)” value is reported as 92%.
In the case of `COc1ccc(-n2nc(COC(=O)NO)c(Br)c2-c2ccc(Cl)cc2)cc1` [1-D], in test [1], the IC50 came out at 3100 nM and the “% INHIB. CO (Procedure I)” value is 43%.
Take `COc1ccc(-n2nc(COC(=O)N(C)O)c(Br)c2-c2ccc(Cl)cc2)cc1` [1-E]: in test [1], 740 nM corresponded to half-maximal inhibition (IC50) and the “% INHIB. CO (Procedure I)” value turned out to be 100%.
For `COc1ccc(-n2nc(COC(=O)N(O)C(C)C)c(Br)c2-c2ccc(Cl)cc2)cc1` [1-F], the inhibition at 7.5 mg/kg came out at 82% in test [2] (7.5 MPK, 6 hours) and 38% in test [3] (7.5 MPK, 6 hours). Further, the “% INHIB. CO (Procedure I)” value in test [1] was 44%.
As to `COc1ccc(-n2nc(COC(=O)NO)c(Cl)c2-c2ccc(Cl)cc2)cc1` [1-G], in test [1], the “% INHIB. CO (Procedure I)” value came to 28%.
For `COc1ccc(-n2nc(COC(=O)N(C)O)c(Cl)c2-c2ccc(Cl)cc2)cc1` [1-H], in test [1], inhibition was half-maximal at 1150 nM (IC50) and the “% INHIB. CO (Procedure I)” value came out at 100%.
In the case of `COc1ccc(-n2nc(COC(=O)N(O)C(C)C)c(Cl)c2-c2ccc(Cl)cc2)cc1` [1-I], in test [1], 5300 nM corresponded to half-maximal inhibition (IC50) and the “% INHIB. CO (Procedure I)” value was determined as 18%.
Take `COc1ccc(-n2nc(COC(=O)NO)cc2-c2ccc(C)cc2)cc1` [1-J]: in test [1], the 50% inhibitory concentration (IC50) was determined as 730 nM and the “% INHIB. CO (Procedure I)” value came out at 73%.
As for `COc1ccc(-n2nc(COC(=O)N(C)O)cc2-c2ccc(C)cc2)cc1` [1-K], the inhibition at 3 mg/kg in test [2] (3 MPK, 2 hours) amounted to 95%; in test [3] (3 MPK, 2 hours), 21%. 510 nM corresponded to half-maximal inhibition in test [1] (IC50). Further, in test [1], the “% INHIB. CO (Procedure I)” value turned out to be 100%.
Turning to `COc1ccc(-n2nc(COC(=O)N(O)C(C)C)cc2-c2ccc(C)cc2)cc1` [1-L], the inhibition at 1 mg/kg in test [2] (2 hours) came to 68%. In addition, the inhibition at 1 mg/kg in test [3] (2 hours) worked out at 22%. Also, in test [1], the IC50 stood at 420 nM and the “% INHIB. CO (Procedure I)” value is on record as 100%.
For `COc1ccc(-n2nc(COC(=O)NO)c(Br)c2-c2ccc(C)cc2)cc1` [1-M], in test [1], the IC50 came to 2310 nM and the “% INHIB. CO (Procedure I)” value turned out to be 75%.
As for `COc1ccc(-n2nc(COC(=O)N(C)O)c(Br)c2-c2ccc(C)cc2)cc1` [1-N], in test [1], it took 890 nM to reach half-maximal inhibition (IC50) and the “% INHIB. CO (Procedure I)” value was 100%.
For the compound `COc1ccc(-n2nc(COC(=O)N(O)C(C)C)c(Br)c2-c2ccc(C)cc2)cc1` [1-O], in test [1], the IC50 came to 2660 nM and the “% INHIB. CO (Procedure I)” value is 59%.
As to `COc1ccc(-n2nc(COC(=O)NO)c(Cl)c2-c2ccc(C)cc2)cc1` [1-P], the inhibition at 5 mg/kg in test [2] (2 hours) was 72%. Further, the inhibition at 5 mg/kg in test [3] (2 hours) came to 27%. Also, in test [1], the IC50 amounted to 5000 nM and the “% INHIB. CO (Procedure I)” value turned out to be 52%.
For `COc1ccc(-n2nc(COC(=O)N(C)O)c(Cl)c2-c2ccc(C)cc2)cc1` [1-Q], in test [1], 2160 nM corresponded to half-maximal inhibition (IC50) and the “% INHIB. CO (Procedure I)” value is 93%.
In the case of `COc1ccc(-n2nc(COC(=O)N(O)C(C)C)c(Cl)c2-c2ccc(C)cc2)cc1` [1-R], the results for the inhibition at 1 mg/kg in test [2] (2 hours) and in test [3] (2 hours) were 7% and 6%, respectively. In test [1], the “% INHIB. CO (Procedure I)” value came out at 11%.
In the case of `COc1ccc(-n2nc(CCOC(=O)N(C)O)cc2-c2ccc(Cl)cc2)cc1` [2-A], in test [2] (2.5 MPK, 6 hours), the inhibition at 2.5 mg/kg was 32%. In addition, in test [3] (2.5 MPK, 6 hours), the inhibition at 2.5 mg/kg was 0%. In test [1], the IC50 amounted to 2010 nM and the “% INHIB. CO (Procedure I)” value came to 100%.
For the compound `COc1ccc(-n2nc(CCOC(=O)N(O)C(C)C)cc2-c2ccc(Cl)cc2)cc1` [2-B], the inhibition at 5 mg/kg in test [2] (2 hours) came out at 33%. In test [3] (2 hours), the inhibition at 5 mg/kg stood at 0%. Besides, in test [1], half-maximal inhibition (IC50) required 960 nM and the “% INHIB. CO (Procedure I)” value stood at 100%.
As for `COc1ccc(-n2nc(CCOC(=O)N(C)O)c(Cl)c2-c2ccc(Cl)cc2)cc1` [2-C], in test [1], the IC50 amounted to 1850 nM and the “% INHIB. CO (Procedure I)” value was 100%.
As to `COc1ccc(-n2nc(CCOC(=O)N(O)C(C)C)c(Cl)c2-c2ccc(Cl)cc2)cc1` [2-D], the inhibition at 5 mg/kg in test [2] (2 hours) came out at 41%. Also, the inhibition at 5 mg/kg in test [3] (2 hours) is 32%. For the same compound, in test [1], the IC50 turned out to be 290 nM and the “% INHIB. CO (Procedure I)” value is reported as 63%.
On to `COc1ccc(-n2nc(CCOC(=O)N(C)O)c(Br)c2-c2ccc(Cl)cc2)cc1` [2-E], for which the inhibition at 5 mg/kg stood at 62% in test [2] (6 hours) and 57% in test [3] (6 hours). In test [1], this compound yielded an IC50 of 1970 nM. In test [1], the “% INHIB. CO (Procedure I)” value was 37%.
For the compound `COc1ccc(-n2nc(CCOC(=O)N(C)O)cc2-c2ccc(C)cc2)cc1` [2-G], in test [1], the IC50 is 410 nM and the “% INHIB. CO (Procedure I)” value turned out to be 100%.
On to `COc1ccc(-n2nc(CCOC(=O)N(O)C(C)C)cc2-c2ccc(C)cc2)cc1` [2-H], for which, in test [1], it took 220 nM to reach half-maximal inhibition (IC50) and the “% INHIB. CO (Procedure I)” value is 94%.
In the case of `COc1ccc(-n2nc(CCOC(=O)NO)c(Br)c2-c2ccc(C)cc2)cc1` [2-K], the “% INHIB. CO (Procedure I)” value in test [1] stood at 21%.
Same read-out and setting: with `COc1ccc(-n2nc(CCOC(=O)N(C)O)c(Br)c2-c2ccc(C)cc2)cc1` [2-L] the figure was 22%.
With `COc1ccc(-n2nc(CCCOC(=O)NO)cc2-c2ccc(Cl)cc2)cc1` [3-A], in test [1], inhibition was half-maximal at 4000 nM (IC50) and the “% INHIB. CO (Procedure I)” value is reported as 40%.
On the same counts, the results for `COc1ccc(-n2nc(CCCOC(=O)N(O)C(C)C)cc2-c2ccc(Cl)cc2)cc1` [3-C] are 1400 nM and 53%.
Consider `COc1ccc(-n2nc(CCCOC(=O)N(O)C(C)C)c(Br)c2-c2ccc(Cl)cc2)cc1` [3-G], for which, in test [1], the concentration for half-maximal inhibition (IC50) is 14100 nM and the “% INHIB. CO (Procedure I)” value is 0%.

Source of the values: patent US5387602A, “1.5-diphenyl-3-(N-hydroxycarbamoyloxyalkyl)pyrazoles” (Ortho Pharmaceutical Corporation, priority 1993, dated 1995).
